Measured values: patent publication US9499550B2 (BRISTOL-MYERS SQUIBB COMPANY, priority 2012, dated 2016)
Read-outs that look alike come from different tables or passages of the source.

What was measured:
[1] = test system: HCV genotype 1b (Con1) replicon in HUH-7 cells; experiment: HCV replicon luciferase reporter assay, genotype 1b; type: cell-based; details: Hepatitis C virus, Huh-7, 72 h, 3 days incubation
Outline: (§1)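 Replicon inhibition for both genotypes was measured as Renilla luciferase signal (EnduRen, 7.5 μM final, 2 h) after 3-day, 37° C exposure of replicon-bearing HUH-7 cells in 4% FCS DMEM, 0.5% DMSO. The 1b construct carries S1179I; the 1a H77 construct carries P1496L and S2204I. Twenty-point, 3-fold dilutions were fitted four-parametrically for EC50, and CC50 was taken from multiplexed Cell Titer-Blue.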

[2] = test system: HCV genotype 1a (H77 strain) replicon in HUH-7 cells; experiment: HCV replicon luciferase reporter assay, genotype 1a; type: cell-based; details: Hepatitis C virus, Huh-7, 72 h, 3 days incubation
Outline: as §1

[3] = HCV genotype 1b replicon luciferase, read-out: LE_1b (EC50, range)
[4] = HCV genotype 1a replicon luciferase, read-out: LE_1a (EC50, range)
[5] = GETYPE1B, HCV genotype 1b replicon luciferase, read-out: LE_1b (EC50, range)
[6] = GETYPE1A, HCV genotype 1a replicon luciferase, read-out: LE_1a (EC50, range)
[7] = HCV genotype 1b replicon luciferase assay, range class, read-out: LE_1b (EC50, range)
[8] = HCV genotype 1a replicon luciferase assay, range class, read-out: LE_1a (EC50, range)

## [2H]C([2H])([2H])Oc1cnc(O[C@@H]2C[C@H]3C(=O)N[C@]4(C(=O)NS(=O)(=O)C5(C)CC5)C[C@H]4/C=C\CC[C@H](C)C[C@@H](C)[C@H](NC(=O)OC(C)(C)C(C)(F)F)C(=O)N3C2)c2ccccc12 [Compound 5108, 3,3-difluoro-2-methylbutan-2-yl((2R,6S,7R,9S,13aS,14aR,16aS,Z)-7,9-dimethyl-14a-(((1-methylcyclopropyl)sulfonyl)carbamoyl)-5,16-dioxo-2-((4-(trideuteromethoxy)isoquinolin-1-yl)oxy)-1,2,3,5,6,7,8,9,10,11,13a,14,14a,15,16,16a-hexadecahydrocyclopropa[e]pyrrolo[1,2-a][1,4]diazacyclopentadecin-6-yl)carbamate]
[1]; [3]
  EC50: < 5.46 nM
[2]; [4]
  EC50: < 5.46 nM

## CCOc1ccc2nc(C(F)(F)F)c(O[C@@H]3C[C@H]4C(=O)N[C@]5(C(=O)NS(=O)(=O)C6(C)CC6)C[C@H]5/C=C\CC[C@@H](C)C[C@@H](C)[C@H](NC(=O)OC(C)(C)C(F)(F)F)C(=O)N4C3)nc2c1 [Compound 4348]
[1]; [5]
  EC50: 0.1 to 0.5 nM
[2]; [6]
  EC50: 0.51 to 1 nM

## CC[C@@H]1C[C@H](C)CC/C=C\[C@@H]2C[C@@]2(C(=O)NS(=O)(=O)C2(C)CC2)NC(=O)[C@@H]2C[C@@H](Oc3cnc4ccc(OC)cc4n3)CN2C(=O)[C@H]1NC(=O)OC(C)(C)C(F)(F)F [Compound 4219]
[1]; [5]
  EC50: < 5.46 nM
[2]; [6]
  EC50: < 5.46 nM

## CC(C)Oc1ccc2c(O[C@@H]3C[C@H]4C(=O)N[C@]5(C(=O)NS(=O)(=O)C6CC6)C[C@H]5/C=C\CC[C@@H](C)C[C@@H](C)[C@H](NC(=O)OC(C)(C)C)C(=O)N4C3)nccc2c1 [Compound 5146, tert-butyl ((2R,6S,7R,9R,13aS,14aR,16aS,Z)-14a-((cyclopropylsulfonyl)carbamoyl)-2-((6-isopropoxyisoquinolin-1-yl)oxy)-7,9-dimethyl-5,16-dioxo-1,2,3,5,6,7,8,9,10,11,13a,14,14a,15,16,16a-hexadecahydrocyclopropa[e]pyrrolo[1,2-a][1,4]diazacyclopentadecin-6-yl)carbamate]
[1]; [3]
  EC50: < 5.46 nM
[2]; [4]
  EC50: < 5.46 nM

## COc1cc(F)cc2c(O[C@@H]3C[C@H]4C(=O)N[C@]5(C(=O)NS(=O)(=O)C6CC6)C[C@H]5/C=C\CC[C@H](C)C[C@@H](C)[C@H](NC(=O)OC(C)(C)C(F)(F)F)C(=O)N4C3)nccc12 [Compound 3165, 1,1,1-trifluoro-2-methylpropan-2-yl((2R,6S,7R,9S,13aS,14aR,16aS,Z)-14a-((cyclopropylsulfonyl)carbamoyl)-2-((7-fluoro-5-methoxyisoquinolin-1-yl)oxy)-7,9-dimethyl-5,16-dioxo-1,2,3,5,6,7,8,9,10,11,13a,14,14a,15,16,16a-hexadecahydrocyclopropa[e]pyrrolo[1,2-a][1,4]diazacyclopentadecin-6-yl)carbamate]
[1]; [7]
  EC50: 4.82 to 103 nM
[2]; [8]
  EC50: 4.82 to 103 nM

## COc1cnc(O[C@@H]2C[C@H]3C(=O)N[C@]4(C(=O)NS(=O)(=O)C5CC5)C[C@H]4/C=C\CC[C@@H](C)C[C@@H](C)[C@H](NC(=O)OC(C)(C)C(F)(F)F)C(=O)N3C2)c2cc(F)ccc12 [Compound 4059]
[1]; [5]
  EC50: < 5.46 nM
[2]; [6]
  EC50: < 5.46 nM

## COc1ccc2c(O[C@@H]3C[C@H]4C(=O)N[C@]5(C(=O)NS(=O)(=O)C6(C)CC6)C[C@H]5/C=C\CC[C@@H](C)C[C@@H](C)[C@H](NC(=O)OC(C)(C)C)C(=O)N4C3)nc(-c3ccc(OC(C)C)nc3)cc2c1 [Compound 5223, tert-butyl ((2R,6S,7R,9R,13aS,14aR,16aS,Z)-2-((3-(6-isopropoxypyridin-3-yl)-6-methoxyisoquinolin-1-yl)oxy)-7,9-dimethyl-14a-(((1-methylcyclopropyl)sulfonyl)carbamoyl)-5,16-dioxo-1,2,3,5,6,7,8,9,10,11,13a,14,14a,15,16,16a-hexadecahydrocyclopropa[e]pyrrolo[1,2-a][1,4]diazacyclopentadecin-6-yl)carbamate]
[1]; [3]
  EC50: < 5.46 nM
[2]; [4]
  EC50: < 5.46 nM

## COc1nnc(O[C@@H]2C[C@H]3C(=O)N[C@]4(C(=O)NS(=O)(=O)C5CC5)C[C@H]4/C=C\CC[C@H](C)C[C@@H](C)[C@H](NC(=O)OC(C)(C)C)C(=O)N3C2)c2ccccc12 [Compound 5003, tert-butyl ((2R,6S,7R,9S,13aS,14aR,16aS,Z)-14a-((cyclopropylsulfonyl)carbamoyl)-2-((4-methoxyphthalazin-1-yl)oxy)-7,9-dimethyl-5,16-dioxo-1,2,3,5,6,7,8,9,10,11,13a,14,14a,15,16,16a-hexadecahydrocyclopropa[e]pyrrolo[1,2-a][1,4]diazacyclopentadecin-6-yl)carbamate]
[1]; HCV genotype 1b replicon luciferase, read-out: LE_1b (EC50)
  EC50: 1.96 nM
[1]; [3]
  EC50: < 5.46 nM
[2]; HCV genotype 1a replicon luciferase, read-out: LE_1a (EC50)
  EC50: 5.46 nM
[2]; [4]
  EC50: 4.82 to 103 nM

## C[C@@H]1CC/C=C\[C@@H]2C[C@@]2(C(=O)NS(=O)(=O)C2(CF)CC2)NC(=O)[C@@H]2C[C@@H](Oc3ncc(N4CCOCC4)c4ccccc34)CN2C(=O)[C@@H](NC(=O)OC(C)(C)C)[C@H](C)C1 [Compound 5443, tert-butyl ((2R,6S,7R,9R,13aS,14aR,16aS,Z)-14a-(((1-(fluoromethyl)cyclopropyl)sulfonyl)carbamoyl)-7,9-dimethyl-2-((4-morpholinoisoquinolin-1-yl)oxy)-5,16-dioxo-1,2,3,5,6,7,8,9,10,11,13a,14,14a,15,16,16a-hexadecahydrocyclopropa[e]pyrrolo[1,2-a][1,4]diazacyclopentadecin-6-yl)carbamate]
[1]; [3]
  EC50: 0.51 to 1 nM
[2]; [4]
  EC50: 1.01 to 5 nM

## COc1ccc2c(O[C@@H]3C[C@H]4C(=O)N[C@]5(C(=O)NS(=O)(=O)C6(F)CC6)C[C@H]5/C=C\CC[C@@H](C)C[C@@H](C)[C@H](NC(=O)c5ccccc5F)C(=O)N4C3)nccc2c1 [Compound 4029]
[1]; [3]
  EC50: < 5.46 nM
[2]; [4]
  EC50: < 5.46 nM

## COc1cnc(O[C@@H]2C[C@H]3C(=O)N[C@]4(C(=O)NS(=O)(=O)C5(CF)CC5)C[C@H]4/C=C\CC[C@@H](C)C[C@@H](C)[C@H](NC(=O)OC4(C)CCOC4)C(=O)N3C2)c2ccccc12 (stereo partly drawn) [Compound 1064, 3-methyltetrahydrofuran-3-yl ((2R,6S,7R,9R,13aS,14aR,16aS,Z)-14a-(((1-(fluoromethyl)cyclopropyl)sulfonyl)carbamoyl)-2-((4-methoxyisoquinolin-1-yl)oxy)-7,9-dimethyl-5,16-dioxo-1,2,3,5,6,7,8,9,10,11,13a,14,14a,15,16,16a-hexadecahydrocyclopropa[e]pyrrolo[1,2-a][1,4]diazacyclopentadecin-6-yl)carbamate]
[1]; [7]
  EC50: < 5.46 nM
[2]; [8]
  EC50: < 5.46 nM

## CC[C@@H]1C[C@H](C)CC/C=C\[C@@H]2C[C@@]2(C(=O)NS(=O)(=O)C2(C)CC2)NC(=O)[C@@H]2C[C@@H](Oc3cnc4ccc(OC)cc4c3)CN2C(=O)[C@H]1NC(=O)OC(C)(C)C(F)(F)F [Compound 4100]
[1]; [5]
  EC50: < 5.46 nM
[2]; [6]
  EC50: < 5.46 nM

## COc1ccc2c(O[C@@H]3C[C@H]4C(=O)N[C@]5(C(=O)NS(=O)(=O)C6(C)CC6)C[C@H]5/C=C\CC[C@@H](C)C[C@@H](C)[C@H](NC(=O)OCC5(C)CC5)C(=O)N4C3)nc(-c3ccc(OC(C)C)c(F)c3)cc2c1 [Compound 3068, (1-methylcyclopropyl)methyl ((2R,6S,7R,9R,13aS,14aR,16aS,Z)-2-((3-(3-fluoro-4-isopropoxyphenyl)-6-methoxyisoquinolin-1-yl)oxy)-7,9-dimethyl-14a-(((1-methylcyclopropyl)sulfonyl)carbamoyl)-5,16-dioxo-1,2,3,5,6,7,8,9,10,11,13a,14,14a,15,16,16a-hexadecahydrocyclopropa[e]pyrrolo[1,2-a][1,4]diazacyclopentadecin-6-yl)carbamate]
[1]; [7]
  EC50: < 5.46 nM
[2]; [8]
  EC50: < 5.46 nM

## CC[C@@H]1C[C@H](C)CC/C=C\[C@@H]2C[C@@]2(C(=O)NS(=O)(=O)C2CC2)NC(=O)[C@@H]2C[C@@H](Oc3nc4cc(OC)c(F)cc4nc3C(F)(F)F)CN2C(=O)[C@H]1NC(=O)OC(C)(C)C [Compound 4266, tert-butyl ((2R,6S,7R,9R,13aS,14aR,16aS,Z)-14a-((cyclopropylsulfonyl)carbamoyl)-7-ethyl-2-((6-fluoro-7-methoxy-3-(trifluoromethyl)quinoxalin-2-yl)oxy)-9-methyl-5,16-dioxo-1,2,3,5,6,7,8,9,10,11,13a,14,14a,15,16,16a-hexadecahydrocyclopropa[e]pyrrolo[1,2-a][1,4]diazacyclopentadecin-6-yl)carbamate]
[1]; [3]
  EC50: 1.01 to 5 nM
[2]; [4]
  EC50: 1.01 to 5 nM

## COc1ccc2c(O[C@@H]3C[C@H]4C(=O)N[C@]5(C(=O)NS(=O)(=O)C6(C)CC6)C[C@H]5/C=C\CC[C@@H](C)C[C@@H](C)[C@H](NC(=O)OC(C)(C)C(F)(F)F)C(=O)N4C3)nc(OC)cc2c1 [Compound 1133, 1,1,1-trifluoro-2-methylpropan-2-yl((2R,6S,7R,9R,13aS,14aR,16aS,Z)-2-((3,6-dimethoxyisoquinolin-1-yl)oxy)-7,9-dimethyl-14a-(((1-methylcyclopropyl)sulfonyl)carbamoyl)-5,16-dioxo-1,2,3,5,6,7,8,9,10,11,13a,14,14a,15,16,16a-hexadecahydrocyclopropa[e]pyrrolo[1,2-a][1,4]diazacyclopentadecin-6-yl)carbamate]
[1]; [7]
  EC50: < 5.46 nM
[2]; [8]
  EC50: < 5.46 nM
